This is an account of results in US9469665B2, “Compound having lysophosphatidylserine receptor function modulation activity” (THE UNIVERSITY OF TOKYO, priority 2013, dated 2016).

The structures appear in SMILES notation. Where a name gives a salt, the structure may show the parent alone.

Turning to `CCCCCCCCCCCOc1ccccc1CCC(=O)O[C@H]1COCC[C@@H]1OP(=O)(O)OC[C@H](N)C(=O)O` (as salt: TFA) [Example 11, (2S)-2-amino-3-(hydroxy-{(3S,4S)-3-[3-(2-undecyloxy-phenyl)-propionyloxy]-tetrahydro-pyran-4-yloxy}-phosphoryloxy)-propionic acid], the melting point – broadly, the temperature of the solid-liquid transition – lay in the range of 132.8 to 134.8 °C.
In turn, `C[C@H](COC(=O)CCc1ccccc1OCc1cccc(Oc2ccccc2)c1)OP(=O)(O)OC[C@H](N)C(=O)O` (as salt: TFA) [Example 3, (2S)-2-amino-3-[hydroxyl-((1R)-1-methyl-2-{3-[2-(3-phenoxy-benzyloxy)-phenyl]-propionyloxy}-ethoxy)-phosphoryloxy]-propionic acid] had a melting point of 143.5 to 144.5 °C.
The result for `CCCCCCCC/C=C\CCCCCCCC(=O)OC[C@H]1OCCC[C@H]1OP(=O)(O)OC[C@H](N)C(=O)O` (as salt: TFA) [Example 15, (9Z)-Octadeca-9-enoic acid (2R,3R)-3-[((2S)-2-amino-2-carboxy-ethoxy)-hydroxy-phosphoryloxy]-tetrahydropyran-2-ylmethyl ester] reads 70 to 80 °C; that for `CCCCCCCC/C=C\CCCCCCCC(=O)OC[C@H]1OCCC[C@@H]1OP(=O)(O)OC[C@H](N)C(=O)O` (as salt: TFA) [Example 20, (9Z)-Octadeca-9-enoic acid (2R,3S)-3-[((2S)-2-amino-2-carboxy-ethoxy)-hydroxy-phosphoryloxy]-tetrahydro-pyran-2-ylmethyl ester], 70 to 80 °C; that for `CCCCCCCCCCCOc1ccccc1CCC(=O)OC[C@H]1OCCC[C@@H]1OP(=O)(O)OC[C@H](N)C(=O)O` (as salt: TFA) [Example 21, (2S)-2-amino-3-(hydroxyl-{(2R,3S)-2-[3-(2-undecyloxy-phenyl)-propionyloxymethyl]-tetrahydro-pyran-3-yloxy}-phosphoryloxy)-propionic acid], 70 to 86 °C.
The result for `N[C@@H](COP(=O)(O)OC[C@H]1OCCC[C@H]1OC(=O)CCc1ccccc1OCc1cccc(Oc2ccccc2)c1)C(=O)O` (as salt: TFA) [Example 18] reads 65 to 75 °C; that for `COC[C@H](COC(=O)CCc1ccccc1OCc1cccc(Oc2ccccc2)c1)OP(=O)(O)OC[C@H](N)C(=O)O` (as salt: TFA) [Example 31, (2S)-2-amino-3-[hydroxy-((1R)-1-methoxymethyl-2-{3-[2-(3-phenoxy-benzyloxy)-phenyl]-propionyloxy}-ethoxy)-phosphoryloxy]-propionic acid], 51.5 to 53.5 °C; that for `CCCCCCCC/C=C\CCCCCCCC(=O)OC[C@H](C)OP(=O)(O)OC[C@H](N)C(=O)O` (as salt: TFA) [Example 2, (9Z)-Octadeca-9-enoic acid (2S)-2-[((2S)-2-amino-2-carboxy-ethoxy)-hydroxy-phosphoryloxy]-propyl ester], 133.5 to 134.5 °C.
The result for `C[C@H](OP(=O)(O)OC[C@H]1OCCC[C@@H]1OC(=O)CCc1ccccc1OCc1cccc(Oc2ccccc2)c1)[C@H](N)C(=O)O` (as salt: TFA) [Example 27, (2S,3S)-2-amino-3-[hydroxyl-((2R,3S)-3-{3-[2-(3-phenoxy-benzyloxy)-phenyl]-propionyloxy}-tetrahydro-pyran-2-ylmethoxy)-phosphoryloxy]-butyric acid] reads 75 to 86 °C; that for `CCCCCCCCCCCOc1ccccc1CCC(=O)O[C@@H]1COCC[C@H]1OP(=O)(O)OC[C@H](N)C(=O)O` (as salt: TFA) [Example 9, (2S)-2-amino-3-(hydroxyl-{(3R,4R)-3-[3-(2-undecyloxy-phenyl)-propionyloxy]-tetrahydropyran-4-yloxy}-phosphoryloxy)-propionic acid], 122 to 123 °C; that for `CCCCCCCC/C=C\CCCCCCCC(=O)OC[C@@H](COC)OP(=O)(O)OC[C@H](N)C(=O)O` (as salt: TFA) [Example 4, (9Z)-Octadeca-9-enoic acid (2R)-2-[((2S)-2-amino-2-carboxy-ethoxy)-hydroxy-phosphoryloxy]-3-methoxy-propyl ester], 192.5 to 196 °C.
Take `C[C@H](OP(=O)(O)O[C@H]1CCCO[C@@H]1COC(=O)CCc1ccccc1OCc1cccc(Oc2ccccc2)c1)[C@H](N)C(=O)O` (as salt: TFA) [Example 29, (2S,3S)-2-amino-3-[hydroxy-((2R,3S)-2-{3-[2-(3-phenoxybenzyloxy)-phenyl]-propionyloxymethyl}-tetrahydro-pyran-3-yloxy)-phosphoryloxy]-butyric acid]: the melting point was in the range of 42 to 54 °C.
`C[C@H](OP(=O)(O)OC[C@H]1OCCC[C@H]1OC(=O)CCc1ccccc1OCc1cccc(Oc2ccccc2)c1)[C@H](N)C(=O)O` (as salt: TFA) [Example 28, (2S,3S)-2-amino-3-[hydroxyl-((2R,3R)-3-{3-[2-(3-phenoxy-benzyloxy)-phenyl]-propionyloxy}-tetrahydro-pyran-2-ylmethoxy)-phosphoryloxy]-butyric acid] had a melting point of 62 to 72 °C.
The result for `CCCCCCCC/C=C\CCCCCCCC(=O)OC[C@@H](COCC)OP(=O)(O)OC[C@H](N)C(=O)O` (as salt: TFA) [Example 6, (9Z)-Octadeca-9-enoic acid (2R)-2-[((2S)-2-amino-2-carboxy-ethoxy)-hydroxy-phosphoryloxy]-3-ethoxypropyl ester] reads 130.2 to 131 °C; that for `CCCCCCCC/C=C\CCCCCCCC(=O)OC[C@H](COC)OP(=O)(O)OC[C@H](N)C(=O)O` (as salt: TFA) [Example 5, (9Z)-Octadeca-9-enoic acid (2S)-2-[((2S)-2-amino-2-carboxy-ethoxy)-hydroxy-phosphoryloxy]-3-methoxy-propyl ester], 149 to 150.5 °C.
The molecule `CCCCCCCC/C=C\CCCCCCCC(=O)OC[C@@H](COCc1ccccc1)OP(=O)(O)OC[C@H](N)C(=O)O` (as salt: TFA) [Example 7, (9Z)-Octadeca-9-enoic acid (2R)-2-[((2S)-2-amino-2-carboxy-ethoxy)-hydroxy-phosphoryloxy]-3-benzyloxy-propyl ester] displayed a melting point of 118.5 to 122 °C.
As for `C[C@H](OP(=O)(O)O[C@@H]1CCCO[C@@H]1COC(=O)CCc1ccccc1OCc1cccc(Oc2ccccc2)c1)[C@H](N)C(=O)O` (as salt: TFA) [Example 30, (2S,3S)-2-amino-3-[hydroxy-((2R,3R)-2-{3-[2-(3-phenoxy-benzyloxy)-phenyl]-propionyloxymethyl}-tetrahydro-pyran-3-yloxy)-phosphoryloxy]-butyric acid], the figure is 52 to 60 °C.
